According to ChEMBL document CHEMBL1201862, “PubChem BioAssay data set” (2004):
Activity calls are given as the source filed them.

What was measured:
cells [1] = assay type: functional, cell-based
cells [2] = assay type: functional, cell-based; remark: listed apart in the source
Nonstructural protein 1 = Nonstructural protein 1 (Influenza A virus, UniProt Q194T2); assay type: functional, Influenza A virus (A/California/07/2009(H1N1))
[3] = HEK-293T cell viability reduction – luminescence, B-cell screen hits, cytotoxicity control for BCR NF-kB inhibitor project, dose response (AID 489021); assay type: functional, cell-based;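 also: HEK-293T cells carrying an NF-kB luciferase reporter; cells exposed to compound for about 14 hours before viability readout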
BJ [4] = experiment: BJ-TERT-LT-ST fibroblast viability loss – cell-based, RAS-independent, luminescence, dose response (AID 1935); assay type: functional; conditions: Homo sapiens;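 also: BJ fibroblasts immortalized with TERT plus LT and ST oncogenes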
INS1 = experiment: INS-1E survival protection against cytokine death – cell-based, luminescence, retest, dose response (AID 449756); assay type: functional; conditions: Rattus norvegicus;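 also: cell death triggered by IL-1 beta plus TNF-alpha plus IFN-gamma mixture; protective hits raise ATP signal compared with cytokine alone wells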
BJ [5] = experiment: BJ-TERT fibroblast viability loss – cell-based, RAS-independent, luminescence, dose response (AID 1933); assay type: functional; conditions: Homo sapiens
[6] = Trypanosoma cruzi growth suppression in host cells – NIH3T3 host cells, beta-gal luminescence, confirmation (AID 2044); assay type: functional, cell-based;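 also: intracellular parasites grown in NIH/3T3 mouse fibroblasts as host cells; luminescent beta-galactosidase reporter signal from transgenic T. cruzi replicating inside host cells; inhibitors lower the luminescence signal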
BJ [7] = experiment: cells; assay type: functional, cell-based; conditions: Homo sapiens
[8] = DRD fibroblast viability loss – cell-based, non-viral oncogenic, luminescence, dose response (AID 1934); assay type: functional; conditions: Homo sapiens
[9] = NIH3T3 cell viability loss – ATP luminescence, mouse fibroblasts, counter-screen, dose response (AID 2010); assay type: functional, cell-based;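 also: cells exposed to compound for about 90 hours before reading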
[10] = molecular target: T1, Short transient receptor potential channel 4 (Mus musculus, UniProt Q9QUQ5); experiment: block of DAMGO-driven TRPC4 calcium entry – cell-based, HEK293 TRPC4/mu-opioid, Fluo-4 calcium, dose response (AID 434942); assay type: functional;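 also: potency of inhibitors blocking the TRPC4 calcium response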
T1 sequence (Q9QUQ5 whole entry): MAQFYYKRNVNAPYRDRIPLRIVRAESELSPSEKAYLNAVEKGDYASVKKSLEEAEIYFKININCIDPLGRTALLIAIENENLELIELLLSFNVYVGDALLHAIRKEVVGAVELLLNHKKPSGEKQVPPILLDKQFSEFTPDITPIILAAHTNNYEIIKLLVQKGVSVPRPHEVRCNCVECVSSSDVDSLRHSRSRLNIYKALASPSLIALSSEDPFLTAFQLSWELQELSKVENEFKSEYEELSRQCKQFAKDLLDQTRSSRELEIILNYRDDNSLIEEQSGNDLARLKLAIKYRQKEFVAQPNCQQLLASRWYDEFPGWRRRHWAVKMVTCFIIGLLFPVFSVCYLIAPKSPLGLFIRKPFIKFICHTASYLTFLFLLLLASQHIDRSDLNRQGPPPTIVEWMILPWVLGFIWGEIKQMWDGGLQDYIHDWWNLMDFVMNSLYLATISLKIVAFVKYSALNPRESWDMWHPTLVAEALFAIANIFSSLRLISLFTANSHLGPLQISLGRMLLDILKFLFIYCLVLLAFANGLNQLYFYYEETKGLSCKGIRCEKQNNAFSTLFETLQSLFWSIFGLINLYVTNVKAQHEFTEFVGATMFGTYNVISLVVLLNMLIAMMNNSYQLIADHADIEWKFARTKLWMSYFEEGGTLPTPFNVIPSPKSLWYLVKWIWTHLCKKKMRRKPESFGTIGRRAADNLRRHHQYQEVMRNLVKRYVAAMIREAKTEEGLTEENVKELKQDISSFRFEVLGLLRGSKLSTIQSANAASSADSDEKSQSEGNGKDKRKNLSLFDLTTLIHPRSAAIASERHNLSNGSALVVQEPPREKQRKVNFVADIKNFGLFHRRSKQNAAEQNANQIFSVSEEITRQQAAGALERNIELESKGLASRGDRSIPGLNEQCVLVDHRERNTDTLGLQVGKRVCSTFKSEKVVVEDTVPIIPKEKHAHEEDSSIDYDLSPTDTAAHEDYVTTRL

[11] = molecular target: T2, Corticotropin-releasing factor receptor 2/Corticotropin-releasing factor-binding protein (Homo sapiens, UniProt P24387+Q13324); experiment: activators of CRF receptor 2 with binding protein – uHTS hits, confirmation (AID 602473); assay type: functional; conditions: read-out: EC50_Mean
T2 sequence (Q13324 whole entry): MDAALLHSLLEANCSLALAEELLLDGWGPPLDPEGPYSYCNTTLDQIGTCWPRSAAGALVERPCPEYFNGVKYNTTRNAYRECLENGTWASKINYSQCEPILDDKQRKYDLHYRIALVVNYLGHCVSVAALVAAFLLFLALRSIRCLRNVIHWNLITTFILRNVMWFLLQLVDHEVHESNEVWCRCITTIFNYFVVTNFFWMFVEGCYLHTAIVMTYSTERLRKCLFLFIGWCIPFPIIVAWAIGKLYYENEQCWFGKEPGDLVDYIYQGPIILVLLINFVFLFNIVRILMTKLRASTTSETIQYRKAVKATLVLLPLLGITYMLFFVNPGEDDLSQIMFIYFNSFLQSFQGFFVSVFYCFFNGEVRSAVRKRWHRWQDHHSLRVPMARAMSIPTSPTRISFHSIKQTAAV
T2 sequence (P24387 whole entry): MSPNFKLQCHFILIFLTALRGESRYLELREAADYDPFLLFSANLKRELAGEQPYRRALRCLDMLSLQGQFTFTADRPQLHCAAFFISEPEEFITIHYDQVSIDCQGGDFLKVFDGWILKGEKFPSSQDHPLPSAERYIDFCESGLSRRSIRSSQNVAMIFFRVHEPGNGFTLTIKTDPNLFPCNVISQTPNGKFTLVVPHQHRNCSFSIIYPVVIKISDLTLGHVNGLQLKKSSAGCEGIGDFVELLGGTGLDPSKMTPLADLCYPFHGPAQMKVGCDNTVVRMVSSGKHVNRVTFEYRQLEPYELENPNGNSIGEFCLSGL

[12] = molecular target: T2, Corticotropin-releasing factor receptor 2/Corticotropin-releasing factor-binding protein; experiment: Dose Response confirmation of uHTS hits for small molecule antagonists of the CRF-binding protein and CRF-R2 receptor complex.; assay type: functional; conditions: read-out: IC50_Mean
[13] = molecular target: T3, Histone-lysine N-methyltransferase NSD2 (Homo sapiens, UniProt O96028); assay type: biochemical
T3 sequence (O96028 whole entry): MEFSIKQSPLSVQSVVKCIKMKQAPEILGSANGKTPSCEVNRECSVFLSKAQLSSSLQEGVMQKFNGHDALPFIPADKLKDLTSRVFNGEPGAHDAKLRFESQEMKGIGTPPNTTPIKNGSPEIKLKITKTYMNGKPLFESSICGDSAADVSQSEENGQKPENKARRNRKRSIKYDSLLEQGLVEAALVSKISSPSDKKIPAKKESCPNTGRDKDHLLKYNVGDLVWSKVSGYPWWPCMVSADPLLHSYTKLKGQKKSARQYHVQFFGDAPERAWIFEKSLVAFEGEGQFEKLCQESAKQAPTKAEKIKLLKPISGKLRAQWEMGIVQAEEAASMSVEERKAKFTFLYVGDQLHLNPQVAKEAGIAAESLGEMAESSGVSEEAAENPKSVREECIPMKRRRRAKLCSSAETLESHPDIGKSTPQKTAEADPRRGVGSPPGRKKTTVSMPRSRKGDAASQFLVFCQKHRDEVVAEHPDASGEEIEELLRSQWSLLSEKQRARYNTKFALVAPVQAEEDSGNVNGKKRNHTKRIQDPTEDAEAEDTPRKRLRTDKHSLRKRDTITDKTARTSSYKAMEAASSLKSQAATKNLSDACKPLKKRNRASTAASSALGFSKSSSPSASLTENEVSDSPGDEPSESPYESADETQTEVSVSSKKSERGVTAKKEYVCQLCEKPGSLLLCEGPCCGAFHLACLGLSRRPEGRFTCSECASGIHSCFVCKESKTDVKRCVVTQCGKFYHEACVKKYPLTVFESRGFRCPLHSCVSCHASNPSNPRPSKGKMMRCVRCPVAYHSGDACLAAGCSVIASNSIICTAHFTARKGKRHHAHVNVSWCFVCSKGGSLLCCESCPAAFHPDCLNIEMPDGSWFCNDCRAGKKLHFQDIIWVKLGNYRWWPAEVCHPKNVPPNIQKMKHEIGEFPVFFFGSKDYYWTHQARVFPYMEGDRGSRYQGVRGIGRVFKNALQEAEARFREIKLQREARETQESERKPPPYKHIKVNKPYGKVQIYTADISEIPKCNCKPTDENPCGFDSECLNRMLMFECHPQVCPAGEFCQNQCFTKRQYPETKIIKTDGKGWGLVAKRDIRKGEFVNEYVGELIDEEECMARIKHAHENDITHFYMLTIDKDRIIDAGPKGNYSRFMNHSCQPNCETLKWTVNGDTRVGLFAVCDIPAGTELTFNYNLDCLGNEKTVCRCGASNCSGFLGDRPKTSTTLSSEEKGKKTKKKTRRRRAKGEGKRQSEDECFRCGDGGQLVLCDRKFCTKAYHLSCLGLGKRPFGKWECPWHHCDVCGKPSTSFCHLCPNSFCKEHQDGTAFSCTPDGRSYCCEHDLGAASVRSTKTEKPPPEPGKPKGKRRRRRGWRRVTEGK

[14] = molecular target: T4, Ubiquitin-conjugating enzyme E2 N (Homo sapiens, UniProt P61088); assay type: functional;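 also: Dose-response confirmation in a TR-FRET assay detecting UBC13-driven polyubiquitin chain formation, inhibition measured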
T4 sequence (P61088 whole entry): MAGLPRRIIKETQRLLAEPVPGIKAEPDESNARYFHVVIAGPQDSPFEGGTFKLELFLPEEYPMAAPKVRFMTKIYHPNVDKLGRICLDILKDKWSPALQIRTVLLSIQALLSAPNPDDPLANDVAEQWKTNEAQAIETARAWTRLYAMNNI

Protein Wnt-3a = Protein Wnt-3a (Mus musculus, UniProt P27467); experiment: antagonism of Wnt3a pathway luciferase reporter – Wnt-LIGHT cells, luminescence, selectivity assay for Gli-SUFU antagonist project, dose response (AID 651570); assay type: functional; conditions: read-out: IC50_Mean;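 also: Wnt-LIGHT reporter cells stimulated with conditioned medium from Wnt3a-producing cells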
Genome polyprotein = Genome polyprotein (dengue virus type 2, UniProt P29990); experiment: flavivirus cap methylation enzyme inhibition – biochemical, confirmation dose response, primary screen (AID 588689); assay type: functional
[15] = reduction of Shn3 3'UTR-driven luciferase in osteoblasts – cell-based, Clone20 osteoblasts, firefly luciferase, cherry-picked, dose response (AID 624132); assay type: functional;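 also: firefly luciferase luminescence from reporter carrying the Shn3 3'UTR in osteoblasts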
[16] = loss of viability in HepG2 cells – cell-based, CellTiter-Glo, cherry-picked, cytotoxicity control for Shn3 inhibitor project, dose response (AID 624134); assay type: functional
[17] = non-specific 3'UTR reporter inhibition in Clone20-Shn3RL – cell-based, Renilla luciferase, cherry-picked, counter-screen for Shn3 inhibitor project, dose response (AID 624133); assay type: functional

Sequence of Nonstructural protein 1 (Q194T2 whole entry): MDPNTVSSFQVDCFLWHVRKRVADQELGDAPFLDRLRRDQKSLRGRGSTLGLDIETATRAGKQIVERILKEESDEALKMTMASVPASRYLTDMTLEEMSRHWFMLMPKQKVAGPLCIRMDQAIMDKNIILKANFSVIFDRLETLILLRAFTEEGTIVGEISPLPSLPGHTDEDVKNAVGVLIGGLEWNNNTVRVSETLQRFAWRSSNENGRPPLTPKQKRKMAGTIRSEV
Sequence of Genome polyprotein (P29990 2492-3391 limits assumed): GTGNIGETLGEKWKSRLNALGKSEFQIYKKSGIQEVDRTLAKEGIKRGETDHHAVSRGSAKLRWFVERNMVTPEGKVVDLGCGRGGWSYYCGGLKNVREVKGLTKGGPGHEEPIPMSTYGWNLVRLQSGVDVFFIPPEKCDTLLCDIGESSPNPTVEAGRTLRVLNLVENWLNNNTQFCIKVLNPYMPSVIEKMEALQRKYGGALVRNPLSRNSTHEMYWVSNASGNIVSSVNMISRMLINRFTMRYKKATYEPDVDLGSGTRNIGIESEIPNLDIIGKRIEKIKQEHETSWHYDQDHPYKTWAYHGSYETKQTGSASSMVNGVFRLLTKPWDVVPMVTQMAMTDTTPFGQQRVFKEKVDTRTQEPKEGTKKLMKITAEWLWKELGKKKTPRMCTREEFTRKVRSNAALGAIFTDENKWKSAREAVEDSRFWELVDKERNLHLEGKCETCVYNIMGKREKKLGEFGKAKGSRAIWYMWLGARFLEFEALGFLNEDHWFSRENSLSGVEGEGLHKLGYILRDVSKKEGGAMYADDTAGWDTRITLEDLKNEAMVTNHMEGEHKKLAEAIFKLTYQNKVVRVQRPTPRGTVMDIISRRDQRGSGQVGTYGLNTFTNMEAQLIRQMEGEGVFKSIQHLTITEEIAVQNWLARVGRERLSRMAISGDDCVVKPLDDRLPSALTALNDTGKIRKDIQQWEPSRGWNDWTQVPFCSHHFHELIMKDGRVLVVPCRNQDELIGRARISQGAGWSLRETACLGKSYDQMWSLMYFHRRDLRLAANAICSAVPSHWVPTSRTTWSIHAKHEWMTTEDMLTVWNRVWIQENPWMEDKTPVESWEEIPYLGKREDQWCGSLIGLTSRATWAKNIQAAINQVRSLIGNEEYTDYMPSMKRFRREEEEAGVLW
Sequence of Protein Wnt-3a (P27467 whole entry): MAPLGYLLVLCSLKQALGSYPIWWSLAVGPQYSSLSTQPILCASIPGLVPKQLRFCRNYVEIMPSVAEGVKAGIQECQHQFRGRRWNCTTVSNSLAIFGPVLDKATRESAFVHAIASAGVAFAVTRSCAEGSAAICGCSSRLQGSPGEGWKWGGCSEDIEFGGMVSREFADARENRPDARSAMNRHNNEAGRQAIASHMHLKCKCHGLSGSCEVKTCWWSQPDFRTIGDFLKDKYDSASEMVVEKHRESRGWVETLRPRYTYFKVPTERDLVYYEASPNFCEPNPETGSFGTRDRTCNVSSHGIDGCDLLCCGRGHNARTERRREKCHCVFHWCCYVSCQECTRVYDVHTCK

CSc1nc(-c2ccc(Cl)cc2)nn1S(=O)(=O)c1ccccc1
IC50 (cells [1]): > 29.9 µM (inactive)
EC50 (cells [2]): > 29.9 µM (inactive)

O=C(CN1CC(=O)Oc2ccccc21)OCC(=O)c1ccc(Br)cc1
IC50 (Nonstructural protein 1): 1.61 µM (active)

N=c1c2c(n(Cc3ccc(Cl)c(Cl)c3)c3c1CCC3)CCCC2
IC50 [3]: > 80 µM (inactive)
EC50 (BJ [4]): > 150 µM (not active)
AC50 (INS1): 2.78 µM (active)
EC50 (BJ [5]): 11.9 µM (active)
EC50 [6]: 0.152 µM (active)
EC50 (BJ [7]): 14.1 µM (inconclusive)
EC50 [8]: 28.9 µM (inconclusive)
EC50 [9]: > 60 µM (not active)

CN(C)C(CNC(=O)c1ccccc1OCc1ccc(Cl)cc1)c1ccco1 (stereo unspecified)
EC50 [10]: 0.0947 µM (active)

Cc1n[nH]c(=S)n(/N=C/c2ccccn2)c1=O
IC50 (Nonstructural protein 1): 6.08 µM (active)

Cc1nc(CNS(=O)(=O)c2ccc3ccccc3c2)cs1
EC50 [11]: > 53 µM (inactive)
IC50 [12]: > 47.1 µM (inactive)
IC50 (Nonstructural protein 1): 37.7 µM (active)

COc1ccc(-c2noc(N3CCC(C(=O)Nc4ccc(F)cc4F)CC3)n2)cc1
IC50 [3]: > 80 µM (inactive)

Cc1nn(-c2ccc(N3CCCCC3)nn2)c(C)c1CCC(=O)Nc1ccccc1F
IC50 [3]: > 80 µM (inactive)

O=C(CCCCCN1C(=O)C2C3C=CC(C3)C2C1=O)Nc1ccc2ncccc2c1 (stereo unspecified)
AC50 [13]: 8.81 µM (active)

Cc1nn(-c2ccccc2)c2nc(C(F)(F)F)cc(O)c12
EC50 [10]: 6.68 µM (active)

N#Cc1c(Cl)nc2c(c1C#N)CCCC2
EC50 [11]: > 53 µM (inactive)
AC50 [13]: 11.8 µM (active)
IC50 [12]: > 47.1 µM (inactive)

CCN(CC)C(=O)C1CCCN(Cc2cccc(Oc3ccccc3)c2)C1 (stereo unspecified)
EC50 [10]: 2.37 µM (active)

CCN(CC(=O)Nc1c(F)cccc1F)C(=O)C1(c2ccccc2)CC1
IC50 [3]: > 80 µM (inactive)

Cc1cc(Nc2cccc(O)c2)c2ccccc2n1
EC50 [10]: 5.31 µM (active)

Cc1ncc(S(=O)(=O)c2ccc(Cl)cc2)c(N)n1
IC50 [14]: > 20 µM (inactive)

Cc1ccsc1CNc1ncnc2ccc(-c3c(C)noc3C)cc12
IC50 (Protein Wnt-3a): 14.8 µM (active)
IC50 [14]: > 20 µM (inactive)

N#C/C(=C\c1cccc(Cl)c1)C(=O)c1ccccc1
IC50 (Genome polyprotein): 64.1 µM (active)

O=C(O)c1ccc(NS(=O)(=O)c2ccc3c(c2)C(=O)c2cc(S(=O)(=O)Nc4ccc(C(=O)O)cc4)ccc2-3)cc1
IC50 (Genome polyprotein): 95.9 µM (active)

O=C(O)C1C2C=CC(C2)C1C(=O)NCCc1cccc(Cl)c1 (stereo unspecified)
IC50 (cells [1]): > 29.9 µM (inactive)
EC50 (cells [2]): > 29.9 µM (inactive)
EC50 [11]: > 53 µM (inactive)
IC50 [12]: > 47.1 µM (inactive)

C=CCn1c(-c2ccc(S(=O)(=O)N3CCOCC3)cc2)cs/c1=N\c1ccccc1
AC50 [15]: 1.52 µM (active)
AC50 [16]: 40 µM (active)
AC50 [17]: 5.6 µM (active)
IC50 (Nonstructural protein 1): > 100 µM (active)

Cc1ccc(-c2cc(C(F)(F)F)n3nc(C(=O)N4CCN5CCCC5C4)cc3n2)cc1 (stereo unspecified)
AC50 [13]: 16 µM (active)

Cc1ccccc1C(=O)NCC(=O)NNC(=S)NC(=O)c1ccccc1C
IC50 [14]: > 20 µM (inactive)
